Each block holds one molecule with its values, some of them ahead of it.
How the values were obtained:
[1] = system: COLO 205; experiment: […] cytotoxic evaluation against colon cancer COLO 205 cell line; format: functional, Homo sapiens
[2] = system: MOLT-4; experiment: […] cytotoxic evaluation against human leukemic Molt-4 cell line; format: functional
[3] = system: EKVX; experiment: […] cytotoxic evaluation against human lung cancer EKVX cell line; format: functional
[4] = system: SK-MEL-5; experiment: […] cytotoxic evaluation against melanoma SK-MEL-5 cell line; format: functional, Homo sapiens
[5] = system: LOX IMVI; experiment: […] cytotoxic evaluation against melanoma LOX IMVI cell line; format: functional, Homo sapiens
[6] = system: MDA-MB-435; experiment: […] cytotoxic evaluation against breast cancer MDA-MB-435 cell line; format: functional, Homo sapiens
[7] = biological target: T1, Dihydrofolate reductase (Rattus norvegicus, UniProt Q920D2)
T1 sequence (Q920D2 whole entry): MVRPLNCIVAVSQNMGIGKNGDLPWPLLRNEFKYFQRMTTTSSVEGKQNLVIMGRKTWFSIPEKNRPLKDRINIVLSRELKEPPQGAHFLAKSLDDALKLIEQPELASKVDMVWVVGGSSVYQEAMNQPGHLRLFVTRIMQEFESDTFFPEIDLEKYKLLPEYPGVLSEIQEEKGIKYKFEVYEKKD
Description: Inhibition of dihydrofolate reductase from rat liver.

[8] = system: HCT-116; experiment: In vitro cytotoxic evaluation against colon cancer HCT116 cell line
[9] = system: HCC 2998; experiment: […] cytotoxic evaluation against colon cancer HCC2998 cell line; format: functional, Homo sapiens
[10] = system: K562; experiment: […] cytotoxic evaluation against human leukemic K-562 cell line; format: functional
[11] = system: MDA-N; experiment: […] cytotoxic evaluation against breast cancer MDA-N cell line; format: functional, Homo sapiens
[12] = system: SF-295; experiment: […] cytotoxic evaluation against CNS cancer SF-295 cell line; format: functional, Homo sapiens
[13] = system: Toxoplasma gondii; experiment: Inhibitory activity against cell growth of Toxoplasma gondii measured by the incorporation of [3H]uracil at 10 uM
[14] = Ratio of inhibitory activity against dihydrofolate reductase of rat liver to Toxoplasma gondii
[15] = Ratio of inhibitory activity against dihydrofolate reductase of rat liver to pneumocystis carinii
[16] = system: Toxoplasma gondii; experiment: Inhibitory activity against cell growth of Toxoplasma gondii measured by the incorporation of [3H]uracil at <=10 uM
[17] = system: Pneumocystis carinii; experiment: Inhibitory activity against cell growth of pneumocystis carinii measured by direct counting of organisms in the culture supernatant fluid at 10 uM
[18] = system: Toxoplasma gondii; experiment: Inhibitory activity against cell growth of Toxoplasma gondii measured by the incorporation of [3H]uracil at […]
[19] = system: Toxoplasma gondii; experiment: Inhibitory activity against cell growth of Toxoplasma gondii measured by the incorporation of [3H]uracil at 7.8 uM
[20] = system: Pneumocystis carinii; experiment: Inhibitory activity against cell growth of pneumocystis carinii measured by direct counting of organisms in the culture supernatant fluid at 50.7 uM

SMILES: COc1ccc(OC)c(NCc2cnc3nc(N)nc(N)c3c2)c1
inhibition at 10 µM [13]: < 50%
IC50 [7]: 5000 nM

SMILES: COc1cccc(NCc2cnc3nc(N)nc(N)c3c2)c1
IC50 [7]: 790 nM

SMILES: COc1ccc(OC)c(CN(C)c2cnc3nc(N)nc(N)c3c2)c1
Ratio [14]: 9
Ratio [15]: 0.7

SMILES: Nc1nc(N)c2cc(CNc3ccccc3)cnc2n1
Inhibition [16]: 0%

SMILES: Nc1nc(N)c2cc(CNc3ccc4ccccc4c3)cnc2n1
GI50 [1]: 2400 nM
GI50 [2]: 2000 nM
GI50 [3]: 9000 nM
GI50 [4]: 3200 nM
GI50 [5]: 1600 nM
GI50 [6]: 10000 nM
IC50 [7]: 4900 nM
GI50 [8]: 1900 nM
GI50 [9]: 1100 nM
GI50 [10]: 500 nM
GI50 [11]: 4400 nM
GI50 [12]: 8200 nM

SMILES: CN(Cc1cnc2nc(N)nc(N)c2c1)c1cc(Cl)c(Cl)c(Cl)c1
IC50 [7]: 270 nM

SMILES: CN(Cc1cnc2nc(N)nc(N)c2c1)c1ccc(Cl)c(Cl)c1
IC50 [7]: 180 nM

SMILES: Nc1nc(N)c2cc(CNc3cccc4ccccc34)cnc2n1
inhibition at 7.8 µM [19]: 50%
IC50 [7]: 600 nM
inhibition at 50.7 µM [20]: 50%

Further lines, with some results ahead:

IC50 [7]: 4600 nM
SMILES: Nc1nc(N)c2cc(CNc3cc(Cl)c(Cl)c(Cl)c3)cnc2n1
GI50 [1]: 310 nM
GI50 [2]: 710 nM
GI50 [3]: 850 nM
GI50 [4]: 350 nM
GI50 [5]: 31 nM
GI50 [6]: 570 nM
GI50 [8]: 740 nM
GI50 [9]: 780 nM
GI50 [10]: 350 nM
GI50 [11]: 500 nM
GI50 [12]: 740 nM

IC50 [7]: 395000 nM
SMILES: CN(Cc1cnc2nc(N)nc(N)c2c1)c1ccccc1

IC50 [7]: 480 nM
SMILES: Nc1nc(N)c2cc(CNc3ccc(Cl)c(Cl)c3)cnc2n1
GI50 [1]: 1700 nM
GI50 [2]: 1100 nM
GI50 [3]: 2400 nM
GI50 [4]: 1100 nM
GI50 [5]: 820 nM
GI50 [6]: 1300 nM
GI50 [8]: 620 nM
GI50 [9]: 2700 nM
GI50 [10]: 330 nM
GI50 [11]: 950 nM
GI50 [12]: 3800 nM

Ratio [15]: 0.02
SMILES: COc1cc(NCc2cnc3nc(N)nc(N)c3c2C)cc(OC)c1OC
Ratio [14]: 0.3

Ratio [15]: 0.07
SMILES: COc1cc(NCc2ccc3nc(N)nc(N)c3c2C)cc(OC)c1OC
Ratio [14]: 0.3

IC50 [7]: 6900 nM
SMILES: Nc1nc(N)c2cc(CNc3cc(Cl)ccc3Cl)cnc2n1
GI50 [1]: 2300 nM
GI50 [2]: 2000 nM
GI50 [3]: 6600 nM
GI50 [4]: 2200 nM
inhibition at 10 µM [17]: 88%
GI50 [5]: 710 nM
GI50 [6]: 2400 nM
inhibition at […] [18]: 50%
GI50 [8]: 2100 nM
GI50 [9]: 3000 nM
GI50 [10]: 1600 nM
GI50 [11]: 3000 nM
GI50 [12]: 4000 nM

IC50 [7]: 560 nM
SMILES: COc1ccc(NCc2cnc3nc(N)nc(N)c3c2)cc1OC
